Literature values in publication PMC10979105, “A simple method to resolve rate constants when the binding mechanism obeys induced fit or conformational selection” (The Journal of Biological Chemistry, 2024).

System: thrombin
Parameters: method as in PMID 23467412
Settings: thrombin versus zymogen prethrombin-2; cited from earlier work

## CC1CNc2c(cccc2S(=O)(=O)N[C@@H](CCCNC(=N)N)C(=O)N2CC[C@@H](C)C[C@@H]2C(=O)O)C1 (stereo partly shown) [argatroban]
  affinity for thrombin higher than for prethrombin-2: 200 fold
